Assay results published in patent US6815577B1, “Method of hybrid seed production using conditional female sterility” (Syngenta Participations AG, priority 1997, dated 2004).

Tests used:
[1] = test system: transgenic plants expressing phosphonate monoester hydrolase gene in tapetal cells; details: Dotson et al. 1996; cited from earlier work
[2] = test system: plants transformed with pMA200 or pSH68 or pZmgarg; assay: Acetyl-PPT treatment of plants conferring conditional male sterility; type: in vivo; details: T1 plants with pMA200 or pSH68 or pZmgarg, treated during the growing stages; untreated plants fully fertile
Procedure: (§1) Seed from the T1 generation from plants transformed with pFA200 or pSH74 or p19arg (conferring conditional female sterility) and plants transformed with pMA200 or pSH68 or pZmgarg (conferring conditional male sterility) are planted in soil. Once plantlets have grown to a sufficient size, leaf tissue is analyzed by PCR for the presence of the argE transgene. PCR positive plants are transferred to the greenhouse. These plants are fully fertile. A subset of the plants containing pFA200 or pSH74 or p19arg and a subset containing pMA200 or pSH68 or pZmarg are treated with the protoxin acetyl-PPT during the growing stages. […] The untreated plants transformed with pFA200 or pSH74 or p19arg and pMA200 or pSH68 or pZmgarg are fully fertile.

[3] = test system: plants transformed with pFA200 or pSH74 or p19arg; assay: Acetyl-PPT treatment of plants conferring conditional female sterility; type: in vivo; details: T1 plants with pFA200 or pSH74 or p19arg, treated during the growing stages; untreated plants fully fertile
Procedure: as §1

[4] = test system: conditional male sterile plants (transformed with pGK73); assay: Acetyl-PPT treatment of conditional male sterile tobacco plants; type: in vivo; details: T1 tobacco, pGK73 (TA29-argE), treated during the growing stages; untreated plants remain fully fertile
Text: Tobacco leaf discs are also transformed with pGK73, containing an expression cassette of the argE gene under the control of the TA29 promoter (Kriete et al., Plant J. 9:809-818 (1996)) as described in Horsch et al., Science 227:1229-1231 (1985). The presence of the integrated transgenes are confirmed by PCR. Northern analysis of RNA made from anthers is used to confirm tissue-specific expression of the argE gene in the transgenic plants. These plants are self-fertile and have the phenotype of conditional male sterility. Seed of the T1 generation is collected after self-pollination.
Seed of the T1 generation from both conditional female sterile plants (transformed with pFA100) and conditional male sterile plants (transformed with pGK73) are planted in soil. Once plantlets have grown to a sufficient size, leaf tissue is analyzed by PCR for the presence of the argE transgene. PCR positive plants are transferred to the greenhouse. These plants are fully fertile in the absence of exogenously-applied protoxin. A subset of the conditional female sterile plants and a subset of the conditional male sterile plants are treated with the protoxin acetyl-PPT during the growing stages. […] The untreated plants remain fully fertile. Pollen from the treated female sterile plants is collected and used to pollinate the pistils of treated male sterile plants, which are the female parent plants. […]

[5] = test system: conditional female sterile plants (transformed with pFA100); assay: Acetyl-PPT treatment of conditional female sterile tobacco plants; type: in vivo; details: T1 tobacco, pFA100 (Stig1-argE), treated during the growing stages; untreated plants remain fully fertile
Text: Plasmid pFA100 is constructed in a manner similar to pSH58, above, except that the argE gene (SEQ ID NO:3) replaces the GUS gene in Stig1-GUS (Goldman et al., EMBO J. 13:2976-2984 (1994)) in the correct translational reading frame using appropriate restriction enzymes. The STIG1-argE fusion is then ligated into a vector such as pCIB200 containing T-DNA borders, 3′ termination sequences and a functional plant selectable marker such as kanamycin resistance. The Stig1 promoter is a female-preferential promoter.
Tobacco leaf discs are transformed as described in Horsch et al., Science 227:1229-1231 (1985) with pSH58. The presence of the integrated transgenes is confirmed by PCR. Northern analysis of RNA made from female tissue is used to confirm tissue-specific expression of the argE gene in the transgenic plants. These plants are self-fertile and have the phenotype of conditional female sterility. T1 seed is collected after self-pollination. The female conditional transgene in pFA100 is also introduced into tobacco using similar procedures.
Seed of the T1 generation from both conditional female sterile plants (transformed with pFA100) and conditional male sterile plants (transformed with pGK73) are planted in soil. Once plantlets have grown to a sufficient size, leaf tissue is analyzed by PCR for the presence of the argE transgene. PCR positive plants are transferred to the greenhouse. […]

[6] = test system: transgenic plants expressing bacterial cytochrome P450 gene in tapetal cells; details: WO 91/03561; O'Keefe et al. 1994; cited from earlier work
[7] = test system: transgenic plants expressing N-acetyl-L-ornithine deacetylase gene in tapetal cells; details: Kriete et al. 1996; EP 531,716; cited from earlier work

## O=C(O)CNCP(=O)(O)OCC(O)CO (stereo not shown) [glycerol glyphosate, glyceryl glyphosate]
[1]
  male fertility after protoxin treatment: rendered male sterile

## CC(=O)NC(CCP(C)(=O)O)C(=O)O (stereo not shown) [acetyl-PPT, N-acetyl phosphinothricin]
[2]
  fertility of treated plants (male reproductive structures): are male sterile
[3]
  fertility of treated plants (female reproductive structures): are female sterile
[4]
  fertility of treated conditional male sterile plants: become male sterile
[5]
  fertility of treated conditional female sterile plants: become female sterile

## COc1cc(OC)nc(NC(=O)NS(=O)(=O)c2cccc3c2S(=O)(=O)N(C(C)C)C3)n1 [R7402, 2-methylethyl-2,2-dihydro-N-[(4,6-dimethoxypyrimidin-2-yl)aminocarbonyl]-1,2-benzoiaothiazole-7-sulfonamide-1,1-dioxide]
[6]
  male fertility after protoxin treatment: rendered male sterile

## CC(=O)N[C@@H](CCP(C)(=O)O)C(=O)O [N-acetyl-L-phosphinothricin]
[7]
  male fertility after protoxin treatment: rendered male sterile
